These are literature values, as cited in patent EP2502493B1, “Novel alpha-galactosidases” (Velico Medical, Inc., priority 2005, dated 2007).

SMILES strings stand for the structures.

As usually defined, the Km is the substrate concentration at which the rate is half of its maximum.

The subject of the data set is α-galactosidase from the marine bacterium Pseudoalteromonas spp. (KMM 701). The note with it: isolated enzyme preparation, purified to 9.8U/mg; monosaccharide substrate pNP-Gal; read-out: apparent Km for pNP-Gal.

Take `O=[N+]([O-])c1ccc(O[C@H]2O[C@H](CO)[C@H](O)[C@H](O)[C@H]2O)cc1` [pNP-Gal, p-nitrophenyl α-D-Gal]: the Michaelis-Menten constant (Km) is 290 µM.
